The record followed here is US4513008A, “Virucidal compositions and therapy” (The Vinoxen Company, Inc., priority 1982, dated 1985).

Values after ≈ are worked out from the molar mass of the structure shown.

The test system of this test is herpes simplex virus type 2 (HSV-2). The test is described as follows: In vitro HSV-2 bioassay: virucidal plaque assay (HEP-2 cells). The following applies: for MIC: Human alphaherpesvirus 2, 0.5 h, Table 4 run, 30 min at 25° C., upper limit, dilutions to 1:12800, read-out: MIC (lowest concentration producing a 3-log reduction in virus titer); for virucidal activity against HSV-2 in words: in vitro bioassay. It counts as cell-based, HSV-2 strain 333. As for the experimental part: Evidence of the efficacy of the virucides of the invention in vitro has been obtained from bioassay using HSV-2, using a standard assay procedure. Serial dilutions of the compounds were tested for their ability to prevent plaque formation by a stock virus suspension. Reduction of plaque titer by test compounds as compared to mock treated controls was indicative of virucidal activity. […] These represent the upper limit for the drug concentration, since dilutions were not carried beyond 1:6400 and in some cases 1:12800.
Cell Culture. Cell cultures used for the propagation and titration of HSV-2 were the human diploid lung embryonic line MRC-5 and the human malignant epitheloid cell line HEP-2 respectively. Stock monolayer cultures of both cell lines were propagated in Dulbecco's Modified Eagle's medium (DME) supplemented with 10% (V/V) calf serum. Spinner cultures for mass production of HEP-2 cells were grown in Joklik's medium supplemented with 10% (V/V) calf serum and 1% (W/V) pluronic acid. Monolayer cultures of HEP-2 cells for plaque or virucidal assay were seeded into 60 mm dishes in DME supplemented with 10% calf serum and antibiotics. Stock cultures were maintained in antibiotic free medium.
Herpes simplex virus, type 2 (HSV-2) strain 333 was obtained from Dr. John Hughes of the Dept. of Medical Microbiology, College of Medicine, The Ohio State University. Stocks of HSV-2 were prepared in the human diploid embryonic lung cell line, MRC-5. Confluent MRC-5 monolayer cultures in T-75 plastic flasks were washed one time with Hank's and Balanced Salt solution (HBSS) and infected with 0.5 ml of HSV-2, strain 333 stock. Virus was adsorbed for 1 hour at 37° C. Then the culture was refed with 15 ml of DME supplemented with 1% (V/V) calf serum. Virus was harvested 48 hours later when cytopathology was complete. Cultures were frozen and thawed rapidly three times to release cell associated virus, clarified by centrifugation at 10,000×g for 15 minutes at 4° C., aliquoted into 5 ml lots and frozen at -70° C. One lot was taken for virus titration.
HSV-2 was titrated by plaque assay in HEP-2 cells under a semi-solid methyl cellulose overlay. Tenfold serial dilutions of virus were prepared in HBSS and 0.3 ml aliquots of each dilution inoculated onto triplicate HEP-2 cell monolayers in 60 mm plastic petri dishes. Adsorption of virus was for 1 hour at 37° C. Plates were then overlayed with 5 ml of a 1:1 mixture of 2×DME supplemented with 2% (V/V) calf serum and 3% (W/V) methyl cellulose to give a final 1×DME supplemented with 1% calf serum and 1.5% methylcellulose. Infected plates were incubated at 37° C. in a humidified 10% CO2 atmosphere for 48 hours. Virus plaques were visualized by staining with crystal violet and counted under a dissecting microscope. Virus titers were calculated from the plaque numbers by averaging the plaque count and multiplying by 3.3 (0.3 ml plates).
The following procedure was employed to assay virucidal activity in various test samples. Compounds were received as a solution in DMSO and were serially diluted in HBSS as described for each experiment. For the test, 1 ml of each dilution was mixed with 1 ml of a stock virus suspension diluted to approximately 9×10^3 plaque forming units (P.F.U.)/ml. This test mixture was incubated at 25° C. for 30 minutes, then inoculated onto a cell culture (HEP-2) for plaque assay as described previously. Mock treated (virus plus HBSS) controls were included with each test. Any reduction of plaque titer by test compounds as compared to the mock treated control was indicative of virucidal activity.
Samples from RP-HPLC fractionation of the CLOH, produced according to Example 2, as well as purified samples of palmitic, myristic and oleic acids and Vitamin D2, were tested for HSV-2 bioactivity. […] Pure oleic acid was not active in this assay, nor were palmitic and myristic acids and Vitamin D2. […]

Setting [1] is: Table 3, dilution 1:10, control titer 4.5 × 10^3.
[2] abbreviates: Table 3, dilution 1:400, TNTC = too numerous to count.
Setting [3] is: Table 3, dilution 1:800, TNTC = too numerous to count.
Setting [4] is: Table 3, dilution 1:1600, TNTC = too numerous to count.
Where [5] appears, read: Table 3, dilution 1:3200, TNTC = too numerous to count.
[6] abbreviates: Table 3, dilution 1:6400, TNTC = too numerous to count.
Where [7] appears, read: Table 3, dilution 1:12800, TNTC = too numerous to count.
[8] abbreviates: Table 1, dilution 1:10, TNTC = too numerous to count.
Setting [9] is: Table 1, dilution 1:100, TNTC = too numerous to count.
Where [10] appears, read: Table 1, dilution 1:200, TNTC = too numerous to count.
Where [11] appears, read: Table 1, dilution 1:400, TNTC = too numerous to count.
[12] abbreviates: Table 1, dilution 1:800, TNTC = too numerous to count.
[13] abbreviates: Table 1, dilution 1:1600, TNTC = too numerous to count.
Where [14] appears, read: Table 1, dilution 1:3200, TNTC = too numerous to count.
The mark [15] stands for this setting: Table 1, dilution 1:6400, TNTC = too numerous to count.

As for `CCC=CCC=CCC=CCC=CCC=CCC=CCCC(=O)OC` [DHA--ME, docasahexaenoic acid, methyl ester], the plaque count runs as follows: (Table 3, dilution 1:10) 95; (Table 3, dilution 1:100) 293; under setting [2], “TNTC”; under setting [3], “TNTC”; under setting [4], “TNTC”; under setting [5], “TNTC”. Besides, the plaque count entry under setting [6] was “TNTC” and the plaque count entry under setting [7] is on record as “TNTC”. The titer is 3.1 × 10^2 under setting [1]; 9.7 × 10^2 (Table 3, dilution 1:100); “TNTC” (Table 3, dilution 1:400); “TNTC” (Table 3, dilution 1:800); “TNTC” (Table 3, dilution 1:1600); “TNTC” (Table 3, dilution 1:3200). The titer result was “TNTC” (Table 3, dilution 1:6400) and “TNTC” (Table 3, dilution 1:12800).

On to `CC/C=C\C/C=C\C/C=C\C/C=C\C/C=C\CCCC(=O)O` [EPA, eicosapentaenoic acid], for which the MIC worked out at 0.37 µg/mL (≈ 1.22 µM). This molecule displayed a plaque count (Table 3, dilution 1:10) of 0. The titer under setting [1] stood at 0. For the setting “Table 3, dilution 1:100”, the plaque count is listed as 0.5 and the titer is listed as 1.7 × 10^0. Besides, under “Table 3, dilution 1:400”, the titer is reported as 1.7 × 10^0. Also, the plaque count under setting [2] is 0.5. Moreover, the titer (Table 3, dilution 1:800) is 1.7 × 10^0. This molecule returned a plaque count under setting [3] of 0.5. For the same molecule, the titer (Table 3, dilution 1:1600) is 1.7 × 10^0. This molecule yielded a plaque count under setting [4] of 0.5. Also, the titer (Table 3, dilution 1:3200) is given as 1.7 × 10^0. Under setting [5], this molecule gave a plaque count of 0.5. Besides, the titer (Table 3, dilution 1:6400) is reported as 1.7 × 10^0. For the same molecule, the plaque count under setting [6] worked out at 0.5. Besides, the titer (Table 3, dilution 1:12800) is reported as 1.7 × 10^0. Besides, the plaque count under setting [7] was 0.5.

Regarding `CCC=CCC=CCC=CCC=CCC=CCCCC(=O)OC` [EPA--ME, eicosapentaenoic acid, methyl ester], the MIC was 540 µg/mL (≈ 1710 µM). Under “Table 3, dilution 1:10”, the plaque count was determined as 0. Besides, the titer under setting [1] came to 0. Where the note is “Table 3, dilution 1:100”, the plaque count is reported as 2.5 and the titer was 8.3 × 10^0. For the same molecule, the titer (Table 3, dilution 1:400) was 2.5 × 10^1. The plaque count under setting [2] stood at 7.5. Further, the titer (Table 3, dilution 1:800) is listed as 4.5 × 10^1. Further, under setting [3], the plaque count is 13.5. Also, the titer (Table 3, dilution 1:1600) is reported as 6.4 × 10^1. Besides, under setting [4], the plaque count is listed as 19.5. Where the note is “Table 3, dilution 1:3200”, the titer is 1.4 × 10^2. This molecule registered a plaque count under setting [5] of 42.5. Moreover, the titer (Table 3, dilution 1:6400) was 1.2 × 10^2. Under setting [6], the plaque count was 36.5. Also, under “Table 3, dilution 1:12800”, the titer is reported as 2.2 × 10^2. Also, the plaque count under setting [7] turned out to be 66.

Consider `CCCCCCCCCCCCCC(=O)O` [Myristic acid, reference compound], for which the “virucidal activity against HSV-2 in words” value (shortened to “virucidal activity”) is on record as “not active”. The plaque count result under setting [8] is “TNTC”. Further, under setting [9], the plaque count entry is reported as “TNTC”. The plaque count result under setting [10] is given as “TNTC”. Besides, the plaque count entry under setting [11] is given as “TNTC”. Also, the plaque count entry under setting [12] was “TNTC”. Besides, the plaque count entry under setting [13] was “TNTC”. In addition, the plaque count result under setting [14] is on record as “TNTC”. Besides, the plaque count result under setting [15] is on record as “TNTC”.

Regarding `CCCCCCCCCCCCCCCC(=O)O` [Palmitic acid, reference compound], the “virucidal activity” value is recorded as “not active”. The plaque count entry under setting [8] is reported as “TNTC”. Under setting [9], the plaque count entry is listed as “TNTC”. Further, the plaque count entry under setting [10] is recorded as “TNTC”. Under setting [11], the plaque count entry is on record as “TNTC”. In addition, under setting [12], the plaque count entry is “TNTC”. Also, the plaque count entry under setting [13] is “TNTC”. Also, the plaque count entry under setting [14] is listed as “TNTC”. Also, the plaque count result under setting [15] is on record as “TNTC”.

Turning to `C=C1CC[C@H](O)C/C1=C/C=C1\CCC[C@]2(C)[C@@H]([C@H](C)/C=C/[C@H](C)C(C)C)CC[C@@H]12` [Vitamin D2, reference compound], the “virucidal activity” value is on record as “not active”. The plaque count entry under setting [8] was “TNTC”. In addition, the plaque count result under setting [9] is listed as “TNTC”. Moreover, the plaque count result under setting [10] is “TNTC”. The plaque count result under setting [11] is reported as “TNTC”. Besides, the plaque count result under setting [12] is on record as “TNTC”. Further, the plaque count entry under setting [13] is reported as “TNTC”. The plaque count entry under setting [14] was “TNTC”. In addition, the plaque count entry under setting [15] is “TNTC”.
